In brackets after ≈: the same amount, converted by molar mass. Non-standard residues stand in square brackets, D forms with d. Residues, ends and D or L forms follow the SMILES beside them. Nspe = C[C@H](NCC(=O)O)c1ccccc1; Nlys = NCCCCNCC(=O)O
Tests used:
[1] = Average hydrophobicity by analytical reverse-phase HPLC retention; format: physicochemical
Procedure: To examine the average hydrophobicity of the peptoids, the retention time for from reverse‐phase HPLC was determined on a C18 column using acetonitrile and water, with 0.1% TFA (see Figure 3A). To find log D values, partitioning experiments were carried out, as illustrated by Figure 2. A peptoid solution (between 10 and 100 µM) in PBS was added to an equal volume of octanol and the system allowed to equilibrate under gentle agitation for ∼150 h (as 48 h was not found to be sufficient for the system to reach equilibrium). At this point it is assumed that the peptoid has partitioned between these two phases, such as to minimise its free energy.
Preparative RP‐HPLC was performed with a semi‐preparative Perkin Elmer Series 200 lc pump fitted with a 785A UV/Vis detector using a SB‐Analytical ODH‐S optimal column (250 mm × 10 mm, 5 µm); flow rate 2 mL min^−1; λ = 250 nm, typical linear gradient elution 0–50% of solvent B over 60 min (A = 0.1% TFA in 95% H2O and 5% MeCN, B = 0.1% TFA in 5% H2O and 95% MeCN). Analytical RP‐HPLC was performed with a Perkin Elmer Series 200 LC pump fitted with a Series 200 UV/Vis detector using a SB‐Analytical ODH‐S optimal column (100 mm × 1.6 mm, 3.5 µm); flow rate 1 mL min^−1; λ = 220 nm, linear gradient elution 0–100% of solvent B over 30 min (A = 0.05% TFA, 95% H2O, 5% MeCN, B = 0.03% TFA, 5% H2O, 95% MeCN).
Preparative RP-HPLC was performed with a semi-preparative Perkin Elmer Series 200 lc pump fitted with a 785A UV/Vis detector using a SB-Analytical ODH-S optimal column (250 × 10 mm, 5 µm); flow rate 2 ml min^−1; λ = 250 nm, typical linear gradient elution 0-50% of solvent B over 60 min (A = 0.1% TFA in 95% H2O and 5% MeCN, B = 0.1% TFA in 5% H2O and 95% MeCN). Analytical RP-HPLC was performed with a Perkin Elmer Series 200 LC pump fitted with a Series 200 UV/Vis detector using a SB-Analytical ODH-S optimal column (100 × 1.6 mm, 3.5 µm); flow rate 1 ml min^−1; λ = 220 nm, linear gradient elution 0-100% of solvent B over 30 min (A = 0.05% TFA, 95% H2O, 5% MeCN, B = 0.03% TFA, 5% H2O, 95% MeCN).
Table S3. Data from analytical RP-HPLC for representative compounds of this peptoid library. Analytical HPLC gradient: 0 – 100% solvent B over 30 min at 220 nm (where solvent A = 95% H2O, 5% MeCN, 0.05 % TFA; solvent B = 95% MeCN, 5% H2O, 0.03% TFA).

E. coli = format: cell-based; settings: Iso-sensitest broth, 96-well, 2-100 µM 1:2 serial dilutions, 38 °C 16 h with shaking, absorbance; lowest concentration completely inhibiting growth; triplicate, minimum of two occasions
Procedure: (§1) Bacterial cultures were prepared by streaking the bacterial strain from a 4°C- or frozen stock culture to single colonies onto agar plates (containing the appropriate antibiotic for strains carrying antibiotic resistance plasmids) with an inoculation loop, followed by overnight incubation at 37 °C.
(§2) Primary overnight (o/n) cultures were prepared by inoculating a single colony from a streak plate into 5 mL of LB broth in a screw-capped culture tube, that was placed on a tube rotator at 37 °C (or 30 °C for sensitive strains) for overnight incubation. Before the usage of stock cultures the strains genotype were checked. Primary stocks were stored at 4°C for up to 6 weeks and always replaced from fresh colonies.
(§3) Fresh cultures used for experiments contained 0.1-0.5 mL o/n culture diluted into 8 mL of fresh medium in a standard test tube. Placed in a shaking water bath or on a tube rotator the bacteria were grown at the required temperature to the required cell density. Frozen stock cultures used for long term storage that can remain viable for 10 years were prepared by mixing 2.5 mL fresh o/n culture with 1.5 mL sterile 80% glycerol in a 5 mL sterile blood tube and stored at -20 °C.
(§4) MIC values were attained according to the previously described protocol4 and were conducted in 96-well plates (Costar, Fisher Scientific). Using the pre-prepared cultures, an innoculum density of 0.07 at 650 nm was set by comparing the absorbance with 0.5 MacFarland standard (240 μM BaCl2 in 0.18 M H2SO4). The innoculum was then diluted down ten-fold with Iso-sensitest broth (Oxoid, ThermoScientific) before use. Peptoids were initially dissolved in DMSO (5 mM) and then diluted further with Iso-sensitest broth to achieve a concentration range of 4 – 200 µM using 1 : 2 serial dilutions. 50 μl of innoculum and 50 μL of peptoid solution were added to each test well (final concentration range of 2 – 100 µM). Positive control containing only innoculum and Iso-sensitest broth; negative control containing inoculum and serial dilutions of ampicillin (from 250 microgram/mL to 2 microgram per mL); DMSO control containing innoculum and serial dilutions of DMSO; and Iso-sensitest broth were used as a sterile control. […] Quantitative data was attained from absorbance values using a microplate reader.

S. aureus = format: cell-based; settings: Iso-sensitest broth, 96-well, 2-100 µM 1:2 serial dilutions, 38 °C 16 h with shaking, absorbance; lowest concentration completely inhibiting growth; triplicate, minimum of two occasions
Procedure: as §1, §2, §3, §4

[2] = test system: L. mexicana promastigotes; test: Cytotoxicity assay with Leishmania mexicana M379 promastigotes (alamarBlue); format: cell-based; settings: 1 h pre-incubation with compound, then 24 h incubation, alamarBlue 4 h, fluorescence Ex 560/Em 600 nm, triplicate, minimum of two separate occasions, ED50 = median effective dose
Procedure: Leishmania mexicana (M379) promastigote parasites were maintained at 26 °C in Schneider's Insect medium (Sigma-Aldrich) supplemented with heat-inactivated foetal bovine sera (FBS, 15%; Biosera Ltd). Cells were counted using a Neubauer Improved Haemocytometer. Promastigotes were transformed into axenic amastigotes by a pH and temperature shift as previously described.5 A culture of recently transformed (three days) promastigotes in the late log phase was transferred into Schneider's Insect medium supplemented with 20% heat-inactivated FBS (pH 5.5) at 5 x 10^5 parasites/mL. […] After additional 5–7 days, the parasites should be in the amastigote stage and be ready for cytotoxicity studies and infections.
Cytotoxicity analyses were performed in 96-well plates (Costar, Fisher Scientific) using alamarBlue (Invitrogen) for cell viability detection as previously described.6 Promastigote and amastigote L. mexicana were pre-incubated with the compounds in triplicate (5 mM stock solutions in DMSO; Amphotericin B was used as a positive control; untreated parasites with DMSO as a negative control) in 50 µL of the corresponding media at 4 x 106 mL-1 for 1 hour. […] Then, 10 µL alamarBlue solution (Invitrogen) was added to each well for an incubation of 4 hours prior to assessing cell viability using a fluorescent plate reader (Biotek; Ex 560 nm / Em 600 nm). […]

## C[C@@H](c1ccccc1)N(CC(N)=O)C(=O)CN(C(=O)CN(CCCCN)C(=O)CN(C(=O)CN(C(=O)CN(CCCCN)C(=O)CN(C(=O)CN(C(=O)CN(CCCCN)C(=O)CN(C(=O)CN(C(=O)CNCCCCN)[C@@H](C)c1ccccc1)[C@@H](C)c1ccccc1)[C@@H](C)c1ccccc1)[C@@H](C)c1ccccc1)[C@@H](C)c1ccccc1)[C@@H](C)c1ccccc1)[C@@H](C)c1ccccc1 [Peptoid 4] (H-[Nlys][Nspe][Nspe][Nlys][Nspe][Nspe][Nlys][Nspe][Nspe][Nlys][Nspe][Nspe]-NH2)
[1]; Supplement table 4 (chemical and physical data for peptoid library), % MeCN at elution in RP-HPLC
  RP-HPLC Retention (% MeCN): 42 % MeCN
[1]; Table 2 / main text, chromatographic, RP-HPLC C18 retention time as measure of average hydrophobicity, gradient 0-100% solvent B over 30 min, 220 nm, 1 mL/min, A = 0.05% TFA, 95% H2O, 5% MeCN, B = 0.03% TFA, 5% H2O, 95% MeCN, around pH 2.2
  HPLC RT: 14.9 min
E. coli
  MIC E. coli: 25 µM (≈ 45.5 µg/mL)
S. aureus
  MIC S. aureus: 2 µM (≈ 3.64 µg/mL)
[2]
  ED50 L. mex prom.: 8 µM

From publication PMC5519928, “Log D versus HPLC derived hydrophobicity: The development of predictive tools to aid in the rational design of bioactive peptoids” (Biopolymers, 2017)
